Experimental data taken from PMC11862611 (RSC Medicinal Chemistry, 2025).
pEC50: −log10 of the molar value.

How the values were obtained:
[1] = system: L. amazonensis promastigotes; assay: anti-promastigote assay, L. amazonensis (resazurin); assay type: cell-based; conditions: Leishmania amazonensis; promastigote parasites (Table 1); read-out: L.amaz EC50
Method: 4.2.3.1. Anti-promastigote assays […]
Protocol 1: L. amazonensis promastigotes in Medium 199 (100 μL at 5 × 105 mL−1) were incubated in 96-well plates with compounds in triplicate (amphotericin B was used as a positive control, and untreated parasites with DMSO as a negative control) at 26 °C for 72 h. Resazurin Solution (10 μL) was then added and the plate incubated at 26 °C for 4 h prior to measurement using a fluorescence plate reader (555 - 585 nm). EC50 values were calculated using sigmoidal regression analysis (GraphPad Prism).
Protocol 2: Same procedure as above with the modification of a 48 h incubation time as opposed to 72 h and Leishmania amazonensis (MHOM/Br/75/JOSEFA) in Schneider’s insect medium in the place of Leishmania amazonensis (MHOM/Br/75/JOSEFA) in Medium 199. […]
well-1 in a 24-well plate with round cover slips and incubated for 24 h at 37 °C and 5% CO2. […]

[2] = biological target: T1, LmjIPCS (Leishmania major, UniProt E9AFX2); assay: HPTLC based LmjIPCS assay; assay type: biochemical; conditions: microsomes treated with 5 mM compound; NBD-C6-ceramide and PI
T1 construct: made in house
T1 sequence (E9AFX2 whole entry): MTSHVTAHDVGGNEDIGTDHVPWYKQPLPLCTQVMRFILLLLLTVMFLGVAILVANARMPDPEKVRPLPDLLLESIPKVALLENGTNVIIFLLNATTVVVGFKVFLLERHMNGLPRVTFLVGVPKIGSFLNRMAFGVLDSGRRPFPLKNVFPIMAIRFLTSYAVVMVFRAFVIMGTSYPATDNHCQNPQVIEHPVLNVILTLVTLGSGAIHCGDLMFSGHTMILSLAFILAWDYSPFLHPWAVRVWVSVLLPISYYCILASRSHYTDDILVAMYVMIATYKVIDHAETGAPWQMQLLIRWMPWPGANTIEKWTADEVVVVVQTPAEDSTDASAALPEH
Source text: CF was originally selected from a screen for inhibitors of the sphingolipid synthase, (L. majIPCS) and to verify that this new analogue retained this profile we applied the same assays as used before. […] To support inhibition of the IPCS, the HPTLC biochemical assay described by Mina et al.[16] was employed. In this, using a microsomal preparation of the L. majIPCS, a fluorescent substrate NBD-C6-ceramide was combined with PI and the two drugs. Following the reaction, the product, NBD-C6-IPC, and residual starting material were separated via HPTLC and analysed by fluorescence spectroscopy.
°C and 5% CO2. Aliquots of resazurin solution (10 μL) were then added and the cells were incubated at 37 °C and 5% CO2 for 4 h. Cell-viability measurement was carried out using a fluorescence plate reader. […]
days. Infected ear thicknesses were measured once or twice a week with a caliper gauge, and the lesion sizes were expressed as the difference between the thickness of infected and non-infected ear. On day 41 animals were sacrificed and the fluorescence measured (485 - 528 nm) and parasite load quantified using a limiting dilution assay (LDA).
Data on lesion progression were analysed for statistical significance by using the Dunnett test as part of the one-way ANOVA (GraphPad Prism 8 software). […]
Product quantification was carried out using a fluorescence plate reader […]

[3] = biological target: T2, M1 (h) (antagonist radioligand) (Homo sapiens, UniProt P11229); assay: radioligand displacement assay, M1; assay type: binding
T2 construct: purchased Eurofins (contract assay); host or cells: cell membrane homogenates
T2 sequence (P11229 1-460): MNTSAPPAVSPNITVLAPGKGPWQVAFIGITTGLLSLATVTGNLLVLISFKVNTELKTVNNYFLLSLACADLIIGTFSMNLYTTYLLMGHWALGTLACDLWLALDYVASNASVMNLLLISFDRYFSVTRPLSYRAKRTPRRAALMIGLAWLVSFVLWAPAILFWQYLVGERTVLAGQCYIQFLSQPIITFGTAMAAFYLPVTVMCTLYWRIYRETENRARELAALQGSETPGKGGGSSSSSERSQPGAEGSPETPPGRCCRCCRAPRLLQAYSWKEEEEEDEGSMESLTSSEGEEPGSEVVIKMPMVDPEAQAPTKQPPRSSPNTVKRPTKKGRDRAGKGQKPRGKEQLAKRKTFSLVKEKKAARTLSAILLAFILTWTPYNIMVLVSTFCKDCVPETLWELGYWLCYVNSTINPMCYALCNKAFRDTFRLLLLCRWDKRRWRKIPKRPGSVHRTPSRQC
Method: 4.2.3.6. Radioligand Binding Assay (Supplemental Figure S3)
These assays were run by Eurofins under contract to LifeArc FR095-0011887. A representative protocol describing the human histamine H2 receptor (antagonist radioligand) assay is shown below.12 Cell membrane homogenates (24 µg protein) are incubated for 120 min at 22°C with 0.075 nM [125I]APT in the absence or presence of the test compound in a buffer containing 50 mM Na2HPO4/KH2PO4 (pH […]
7.4) and 0.05% BSA. […] Following

SMILES: C[C@H]1CCCN1CCCO[C@H](c1ccccc1)c1ccc(Cl)cc1 [38l]
- pEC50 [1]: 7.39
- NBD-C6-IPC product formation (HPTLC) [2]: No product was observed
- effective binding, radioligand displacement, M1 [3]: > 40%
